Results: ChEMBL document CHEMBL3045655, “Use of structure-based virtual screening in the investigation of novel human sialidase inhibitors” (Med Chem Res, 2010)
Activity calls are given as the source filed them. The calls are words filed in the database; no cut-off is given here.

Experiments:
Sialidase-3 = biological target: T1, Sialidase-3 (Homo sapiens, UniProt Q9UQ49); assay: Inhibition of Homo sapiens (human) NEU3 expressed in HEK293 cells using mixed ganglioside as substrate after 10 to 30 min by fluorometric analysis; type: cell-based
T1 sequence (Q9UQ49 whole entry): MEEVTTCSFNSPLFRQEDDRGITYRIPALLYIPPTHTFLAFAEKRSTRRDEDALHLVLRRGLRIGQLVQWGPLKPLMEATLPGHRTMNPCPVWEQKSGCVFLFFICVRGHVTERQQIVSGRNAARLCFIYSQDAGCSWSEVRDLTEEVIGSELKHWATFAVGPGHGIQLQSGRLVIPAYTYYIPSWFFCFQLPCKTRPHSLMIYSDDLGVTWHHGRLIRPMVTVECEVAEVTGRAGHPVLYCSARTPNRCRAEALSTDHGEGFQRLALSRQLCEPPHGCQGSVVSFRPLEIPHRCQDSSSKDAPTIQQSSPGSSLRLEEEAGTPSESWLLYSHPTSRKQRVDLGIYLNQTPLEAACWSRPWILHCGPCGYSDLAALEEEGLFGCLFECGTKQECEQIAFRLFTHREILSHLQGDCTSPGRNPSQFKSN

[1] = biological target: Sialidase-1 (Homo sapiens) (UniProt Q99519); assay: Inhibition of Homo sapiens (human) NEU1 expressed in HEK293 cells using 4MU-NeuAc as substrate at 1 mM after 10 to 30 min by fluorometric analysis; type: cell-based
Sialidase-4 = biological target: T2, Sialidase-4 (Homo sapiens, UniProt Q8WWR8); assay: Inhibition of Homo sapiens (human) NEU4 expressed in HEK293 cells using 4MU-NeuAc as substrate after 10 to 30 min by fluorometric analysis; type: cell-based
T2 sequence (Q8WWR8 whole entry): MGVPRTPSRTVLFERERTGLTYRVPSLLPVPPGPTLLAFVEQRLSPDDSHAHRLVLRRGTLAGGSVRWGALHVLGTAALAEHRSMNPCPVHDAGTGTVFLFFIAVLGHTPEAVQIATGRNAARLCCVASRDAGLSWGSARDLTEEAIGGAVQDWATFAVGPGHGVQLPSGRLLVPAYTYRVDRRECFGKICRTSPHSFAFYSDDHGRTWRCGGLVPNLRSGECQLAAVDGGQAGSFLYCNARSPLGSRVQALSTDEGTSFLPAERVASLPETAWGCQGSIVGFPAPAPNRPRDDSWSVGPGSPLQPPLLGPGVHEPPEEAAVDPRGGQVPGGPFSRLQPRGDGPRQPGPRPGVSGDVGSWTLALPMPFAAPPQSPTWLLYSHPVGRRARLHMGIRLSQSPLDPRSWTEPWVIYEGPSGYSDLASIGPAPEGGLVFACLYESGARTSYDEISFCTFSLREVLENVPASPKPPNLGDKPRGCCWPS

[2] = biological target: T3, Sialidase-4 (Homo sapiens) (UniProt Q8WWR8); assay: Inhibition of Homo sapiens (human) NEU4 expressed in HEK293 cells using 4MU-NeuAc as substrate at 1 mM after 10 to 30 min by fluorometric analysis
T3 sequence (whole entry): T2 sequence (Q8WWR8 whole entry)

[3] = biological target: T4, Sialidase-3 (Homo sapiens) (UniProt Q9UQ49); assay: Inhibition of Homo sapiens (human) NEU3 expressed in HEK293 cells using mixed ganglioside as substrate at 1 mM after 10 to 30 min by fluorometric analysis; type: cell-based
T4 sequence (whole entry): T1 sequence (Q9UQ49 whole entry)

[4] = biological target: Sialidase-2 (Homo sapiens) (UniProt Q9Y3R4); conditions: HEK293, 1 mM
Sequence of Sialidase-2 (Homo sapiens) (Q9Y3R4 whole entry): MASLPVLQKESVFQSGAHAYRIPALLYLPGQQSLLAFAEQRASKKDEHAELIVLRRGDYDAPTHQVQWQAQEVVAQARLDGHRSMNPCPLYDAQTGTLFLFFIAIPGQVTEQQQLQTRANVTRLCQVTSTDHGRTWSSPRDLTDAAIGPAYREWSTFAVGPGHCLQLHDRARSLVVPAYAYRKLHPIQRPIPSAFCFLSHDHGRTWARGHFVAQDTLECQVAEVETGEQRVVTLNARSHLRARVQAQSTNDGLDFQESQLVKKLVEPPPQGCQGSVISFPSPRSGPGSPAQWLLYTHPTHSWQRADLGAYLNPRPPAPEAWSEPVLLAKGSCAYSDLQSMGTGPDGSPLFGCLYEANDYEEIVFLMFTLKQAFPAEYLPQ
Description: Inhibition of Homo sapiens (human) NEU2 expressed in HEK293 cells using 4MU-NeuAc as substrate at 1 mM after 10 to 30 min by fluorometric analysis

| IC50 (Sialidase-3) [µM] | inhibition [1] | IC50 (Sialidase-4) [µM] | inhibition [2] [%] | inhibition [3] [%] | inhibition [4] [%] | SMILES |
| --- | --- | --- | --- | --- | --- | --- |
| 60 | – | – | – | – | – | CC(=O)N[C@H]1[C@H]([C@@H](O)[C@@H](O)CO)OC(C(=O)O)=C[C@@H]1O |
| > 5000 | inactive | > 5000 | – | – | – | CC(=O)Nc1cc(F)c(C(=O)O)cc1NC(=O)c1ccc(-c2ccccc2)cc1 |
| 920 | 7% | 670 | 56 | 56 | 40 | O=C(O)c1oc(C(=O)O)c(OCc2ccccc2)c1OCc1ccccc1 |
